Assay results reported in patent US6979686B1, “Substituted pyrazoles as p38 kinase inhibitors” (Pharmacia Corporation, priority 2001, dated 2005).
pIC50: −log10 of the molar value. Like-named read-outs stand apart in the source and are kept apart here.

Experiments:
human p38 kinase alpha = molecular target: T1, human p38 kinase alpha (Homo sapiens, UniProt Q16539); test: p38 kinase in vitro assay, phosphorylation of biotinylated PHAS-I with 32P-ATP; type: biochemical; details: for P38 alpha kinase IC50, uM or % inhib @ conc. (uM): % inhib: @ 10.0 uM; for P38 alpha kinase % inhib @ conc. (uM): @ 1.0 uM; for pIC50: read-out: P38 alpha kinase IC50
T1 construct: GST (N, cleaved yes); made in house; host or cells: E. coli DH10B

[1] = system: TNF-α, U937 human histiocytic lymphoma cell line; test: LPS stimulation of TNF production by U937 cells; type: cell-based; details: for U937 Cell % inhib @ conc. (uM) / U937 Cell % inhib @ conc.: @ 1.0 uM; for inhibition at 1 µM: U-937, @ 1.0 uM, read-out: U937 Cell % inhib @ conc.
Experimental: Maintenance and Differentiation of the U937 Human Histiocytic Lymphoma Cell Line:
Fifty million cells in 100 ml media were induced to terminal monocytic differentiation by 24 hour incubation with 20 ng/ml phorbol 12-myristate 13-acetate (Sigma). The cells were washed by centrifugation (200×g for 5 min) and resuspended in 100 ml fresh medium. After 24-48 hours, the cells were harvested, centrifuged, and resuspended in culture medium at 2 million cells/ml.
LPS Stimulation of TNF Production by U937 Cells:
Compounds were prepared as 10 mM stock solutions in DMSO and diluted in culture medium to yield a final DMSO concentration of 0.1% in the cell assay. LPS (E coli, 100 ng/ml final concentration) was then added at a volume of 0.02 ml. After 4 hour incubation at 37° C., the amount of TNF-α released in the culture medium was quantitated by ELISA. Inhibitory potency is expressed as IC50 (μM).
In vitro whole cell assay for measuring the ability of the compounds to inhibit TNF production in human U937 cells stimulated with LPS are shown in the column identified as: • “U937 Cell IC50, uM or % inhib @ conc., (uM)”

[2] = TNF production, U937 cells stimulated with LPS
[3] = Homo sapiens, U-937, TNF production, human U937 cells stimulated with LPS, read-out: U937 Cell IC50
[4] = in vitro P38-alpha kinase inhibition
[5] = Homo sapiens, TNF production, LPS-stimulated U937 cells
[6] = TNF production in human U937 cells stimulated with LPS
[7] = Homo sapiens, TNF production, U937 cells stimulated with LPS
[8] = Table 5, LPS-stimulated U937 cells, TNF-α, read-out: U937 Cell Assay IC50

T1 sequence (Q16539 whole entry): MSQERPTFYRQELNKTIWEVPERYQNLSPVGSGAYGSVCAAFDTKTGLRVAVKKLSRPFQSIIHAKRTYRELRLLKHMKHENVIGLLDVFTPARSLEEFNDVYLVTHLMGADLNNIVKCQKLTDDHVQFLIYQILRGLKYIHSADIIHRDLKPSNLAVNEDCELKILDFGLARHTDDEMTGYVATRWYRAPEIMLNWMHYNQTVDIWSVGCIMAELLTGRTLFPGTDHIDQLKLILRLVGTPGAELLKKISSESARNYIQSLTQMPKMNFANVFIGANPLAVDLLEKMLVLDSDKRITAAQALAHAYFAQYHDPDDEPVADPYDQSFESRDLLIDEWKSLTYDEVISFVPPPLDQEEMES

## Cc1c(-c2ccncc2)c(-c2ccc(F)cc2)nn1CC(=O)N1CCC(N(C)C(=O)OC(C)(C)C)C1 (stereo not drawn) [Example B-2389]
Human p38 kinase alpha
  P38 alpha kinase IC50, uM or % inhib @ conc. (uM): % inhib: 39.0% @
[1]; @ 10.0 uM, TNF production, U937 cells stimulated with LPS
  U937 Cell IC50, uM or % inhib @ conc. (uM): % inhib: 29.0% @

## Cc1c(-c2ccncc2)c(-c2ccc(F)cc2)nn1CC(=O)Nc1ccccc1OC(F)(F)F [Example B-2453]
Human p38 kinase alpha
  P38 alpha kinase IC50, uM or % inhib @ conc. (uM): % inhib: 91.0% @
[1]; TNF production, U937 cells stimulated with LPS, read-out: U937 Cell IC50, uM or % inhib @ conc. (uM): IC50
  IC50: > 10 µM

## O=S(=O)(NCCc1[nH]nc(-c2ccc(F)cc2)c1-c1ccncc1)c1ccc(F)cc1 [Example B-1013]
Human p38 kinase alpha
  P38 alpha kinase % inhib @ conc. (uM): 85.0% @
[1]; [2]
  U937 Cell % inhib @ conc. (uM): 7.0% @

## O=C(NCCCc1[nH]nc(-c2ccc(F)cc2)c1-c1ccncc1)NCCCn1ccnc1 [Example B-1297]
Human p38 kinase alpha; in vitro P38-alpha kinase
  pIC50: 7.70
[1]; [3]
  pIC50: < 6.00

## O=C(NCCc1[nH]nc(-c2ccc(F)cc2)c1-c1ccncc1)c1cccc(C(F)(F)F)c1F [Example B-1138]
Human p38 kinase alpha; [4]
  pIC50: 5.74
[1]; [3]
  pIC50: < 6.00

## COc1ccc(NC(=O)NCCc2[nH]nc(-c3ccc(F)cc3)c2-c2ccncc2)cc1 [Example B-0978]
Human p38 kinase alpha
  P38 alpha kinase % inhib @ conc. (uM): 59.0% @
[1]; [2]
  U937 Cell % inhib @ conc. (uM): 36.0% @

## O=C(NC(Cc1ccccc1)c1[nH]nc(-c2ccc(F)cc2)c1-c1ccncc1)c1ccccn1 (stereo not drawn) [Example B-0855]
[1]; [2]
  U937 Cell % inhib @ conc. (uM): 8.0% @

## N#Cc1cccc(S(=O)(=O)N2CCC(c3[nH]nc(-c4ccc(F)cc4)c3-c3ccncc3)CC2)c1 [Example B-1469]
Human p38 kinase alpha; in vitro P38-alpha kinase
  pIC50: 6.43
[1]; [5]
  inhibition at 1 µM: 14%

## C[C@@H](NC(=O)N[C@H](C)c1[nH]nc(-c2ccc(F)cc2)c1-c1ccncc1)c1ccccc1 [Example B-0417]
[1]; [6]
  U937 Cell % inhib @ conc. (uM): 28.0% @

## CC(C)c1cc(C(C)C)c(C(=O)NC(C)c2[nH]nc(-c3ccc(F)cc3)c2-c2ccncc2)c(C(C)C)c1 (stereo not drawn) [Example B-0497]
Human p38 kinase alpha; [4]
  pIC50: 6.36
[1]; Homo sapiens, TNF production in human U937 cells stimulated with LPS
  inhibition at 1 µM: 31%

## Cc1ccc(S(=O)(=O)NC(Cc2ccccc2)C(=O)NCCCc2[nH]nc(-c3ccc(F)cc3)c2-c2ccncc2)cc1 (stereo not drawn) [Example B-1188]
[1]; [2]
  U937 Cell % inhib @ conc. (uM): 36.0% @

## O=C(NCc1[nH]nc(-c2ccc(F)cc2)c1-c1ccncc1)c1ccc(F)cc1C(F)(F)F [Example B-0062]
[1]; [2]
  U937 Cell % inhib @ conc.: 36.0% @

## Cc1cccc(C(=O)NCc2[nH]nc(-c3ccc(F)cc3)c2-c2ccncc2)c1 [Example B-0290]
[1]; [7]
  inhibition at 1 µM: 44%

## O=C(NCCCc1[nH]nc(-c2ccc(F)cc2)c1-c1ccncc1)NCc1ccccn1 [Example B-1304]
[1]; [5]
  inhibition at 1 µM: 10%

## C[C@@H](NS(=O)(=O)c1ccc2ccccc2c1)c1[nH]nc(-c2ccc(F)cc2)c1-c1ccncc1 [Example B-0475]
[1]; [6]
  U937 Cell % inhib @ conc. (uM): 74.0% @

## CC(NC(=O)c1ccc(Cl)cc1Cl)c1[nH]nc(-c2ccc(F)cc2)c1-c1ccncc1 (stereo not drawn) [Example B-0693]
[1]; [6]
  U937 Cell % inhib @ conc. (uM): 28.0% @

## Cc1cccc(C(=O)NCc2[nH]nc(-c3ccc(F)cc3)c2-c2ccncc2)c1 [Example B-0067]
[1]; [2]
  U937 Cell % inhib @ conc.: 1.0% @

## CC1(C)C2CCC1(CS(=O)(=O)NCc1[nH]nc(-c3ccc(F)cc3)c1-c1ccncc1)C(=O)C2 (stereo not drawn) [Example B-0227]
[1]; [2]
  U937 Cell % inhib @ conc.: 1.0% @

## COc1ccc(CC(=O)N[C@H](C)c2[nH]nc(-c3ccc(F)cc3)c2-c2ccncc2)cc1OC [Example B-0371]
[1]; [7]
  inhibition at 1 µM: 28%

## Cc1[nH]nc(-c2ccc(N(C)C)cc2)c1-c1ccncc1 [Example A-37]
[1]; [8]
  pIC50: 7.00

## O=C(NCc1[nH]nc(-c2ccc(F)cc2)c1-c1ccncc1)c1cccs1 [Example B-0303]
[1]; [2]
  U937 Cell % inhib @ conc.: 10.0% @

## CC1(C)C2CCC1(CS(=O)(=O)NCc1[nH]nc(-c3ccc(F)cc3)c1-c1ccncc1)C(=O)C2 (stereo not drawn) [Example B-0226]
[1]; [7]
  inhibition at 1 µM: 20%

## O=C(NC(Cc1ccccc1)c1[nH]nc(-c2ccc(F)cc2)c1-c1ccncc1)c1ccncc1 (stereo not drawn) [Example B-0854]
[1]; [2]
  U937 Cell % inhib @ conc. (uM): 25.0% @

## O=C(NCCCc1[nH]nc(-c2ccc(F)cc2)c1-c1ccncc1)NCCc1c[nH]cn1 [Example B-1306]
[1]; [3]
  pIC50: < 6.00

## Cc1ccc(-c2n[nH]c(C)c2-c2ccncc2)c(C)c1 [Example A-31]
[1]; [8]
  pIC50: 5.98
